In patent US8710038B2, “Pyrazole kinase modulators and methods of use” (Exelixis, Inc., priority 2004, dated 2014):
pIC50: −log10 of the molar value.

What was measured:
flt-3 = target: T1, flt-3 (Homo sapiens, UniProt P36888); assay: flt-3 Luciferase-Coupled Chemiluminescent Kinase assay (LCCA); type: biochemical
T1 construct: baculovirus expressed human Flt-3 kinase domain R571-S993
T1 sequence (P36888 571-993): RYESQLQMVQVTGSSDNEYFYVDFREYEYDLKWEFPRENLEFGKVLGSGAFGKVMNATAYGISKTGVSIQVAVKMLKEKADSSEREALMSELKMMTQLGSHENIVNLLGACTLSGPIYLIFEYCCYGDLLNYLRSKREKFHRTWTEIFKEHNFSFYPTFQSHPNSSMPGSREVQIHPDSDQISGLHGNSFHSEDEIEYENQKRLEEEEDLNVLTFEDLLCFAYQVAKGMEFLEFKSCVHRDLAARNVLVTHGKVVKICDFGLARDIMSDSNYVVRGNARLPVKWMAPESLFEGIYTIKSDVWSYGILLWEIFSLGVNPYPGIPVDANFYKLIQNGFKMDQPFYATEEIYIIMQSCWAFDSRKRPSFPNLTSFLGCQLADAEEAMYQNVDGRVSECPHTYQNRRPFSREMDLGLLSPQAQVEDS
In short: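 Baculovirus-expressed human Flt-3 kinase domain (R571-S993, 5 nM) was reacted with 5 μM ATP and 3 μM poly-EY in Tris pH 7.5 buffer with MgCl2/MnCl2 for 3 h at ambient temperature. Remaining ATP was read by luciferase-luciferin chemiluminescence, with ATP consumption standardized to 25-45%, for IC50.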

EphB4 = target: T2, EphB4 (Homo sapiens, UniProt P54760); assay: EphB4 kinase inhibition assay; type: biochemical
T2 sequence (P54760 16-987): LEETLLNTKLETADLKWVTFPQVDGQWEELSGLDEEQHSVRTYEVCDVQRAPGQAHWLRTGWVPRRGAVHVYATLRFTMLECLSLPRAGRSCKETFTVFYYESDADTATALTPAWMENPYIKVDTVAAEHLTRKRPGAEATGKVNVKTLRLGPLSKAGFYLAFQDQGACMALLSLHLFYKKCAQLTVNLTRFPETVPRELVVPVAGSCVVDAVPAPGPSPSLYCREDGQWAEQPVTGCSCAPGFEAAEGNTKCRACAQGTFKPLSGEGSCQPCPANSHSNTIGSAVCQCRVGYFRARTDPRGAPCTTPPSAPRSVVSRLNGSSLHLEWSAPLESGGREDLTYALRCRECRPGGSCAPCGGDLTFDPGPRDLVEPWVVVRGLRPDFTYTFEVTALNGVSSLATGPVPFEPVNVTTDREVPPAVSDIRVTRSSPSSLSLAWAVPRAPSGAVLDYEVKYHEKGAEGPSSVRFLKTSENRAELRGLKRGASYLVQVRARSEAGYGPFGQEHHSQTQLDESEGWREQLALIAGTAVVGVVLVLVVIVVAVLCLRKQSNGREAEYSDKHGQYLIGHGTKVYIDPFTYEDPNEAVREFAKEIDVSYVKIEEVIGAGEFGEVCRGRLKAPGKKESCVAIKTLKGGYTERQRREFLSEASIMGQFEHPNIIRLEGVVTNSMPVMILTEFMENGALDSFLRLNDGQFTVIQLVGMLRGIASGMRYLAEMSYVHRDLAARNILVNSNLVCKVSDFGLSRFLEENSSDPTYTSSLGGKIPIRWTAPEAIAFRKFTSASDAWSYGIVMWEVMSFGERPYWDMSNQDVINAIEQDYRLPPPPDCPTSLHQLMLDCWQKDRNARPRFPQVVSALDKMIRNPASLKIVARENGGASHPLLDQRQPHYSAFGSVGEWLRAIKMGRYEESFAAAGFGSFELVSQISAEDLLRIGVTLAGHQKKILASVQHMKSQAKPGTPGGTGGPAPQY
Protocol: (§1) Kinase activity and compound inhibition are investigated using one or more of the three assay formats described below. The ATP concentrations for each assay are selected to be close to the Michaelis-Menten constant (KM) for each individual kinase. Dose-response experiments are performed at 10 different inhibitor concentrations in a 384-well plate format. The data are fitted to four-parameter equation (2) below; where Y is the observed signal, X is the inhibitor concentration, Min is the background signal in the absence of enzyme (0% enzyme activity), Max is the signal in the absence of inhibitor (100% enzyme activity), IC50 is the inhibitor concentration at 50% enzyme inhibition and H represents the empirical Hill's slope to measure the cooperativity. Typically H is close to unity. Y=Min+(Max−Min)/(1+(X/IC50)^H) Equation (2) ^33P Phosphoryl Transfer Assay: […]
(§2) Greiner 384-well white, clear bottom, high binding plates are coated with 2 μg/well of protein or peptide substrate in a 50 μL volume overnight at ambient temperature. The coating buffer typically contains 40 μg/mL substrate, 22.5 mM Na2CO3, 27.5 mM NaHCO3, 150 mM NaCl and 3 mM NaN3. The coating solution is aspirated and the plates are washed once with 50 μL of assay buffer and padded dry. Subsequently compounds and enzymes are mixed with γ^33P-ATP (3.3 μCi/nmol) in a total volume of 20 uL in suitable assay buffers. The mixture is incubated at ambient temperature for 1.5-2.5 hrs and terminated by aspiration using a Molecular Devices EMBLA 96-head plate washer. The plates are subsequently washed 6-12 times with PBST or TBS buffer. Scintillation fluid (50 μl/well) is then added, the plates are sealed and activity assessed by liquid scintillation spectrometry using a Perkin Elmer MicroBeta TriLux.
(§3) In the LCCA assays, kinase activity is measured as the percent ATP consumed following the kinase reaction using luciferase-luciferin-coupled chemiluminescence. Greiner 384-well white, clear bottom, medium-binding plates are used for LCCA. Briefly, the kinase reaction is initiated by mixing compounds, ATP and kinase in a 20 uL volume. The mixture is incubated at ambient temperature for 2-4 hrs. At the end of the kinase reaction, a 20 uL luciferase-luciferin mix is added and the chemiluminescent signal is read using a Wallac Victor^2 reader. The luciferase-luciferin mix consists of 50 mM HEPES, pH 7.8, 8.5 ug/mL oxalic acid (pH 7.8), 5 (or 50) mM DTT, 0.4% Triton X-100, 0.25 mg/mL coenzyme A, 63 uM AMP, 28 ug/mL luciferin and 40,000 units of light/mL luciferase. For the LCCA assays, total ATP consumption has been standardized to 25-45% and the IC50 values correlates well with those determined by radiometric assays.
(§4) AlphaScreen technology is a proximity assay which utilizes the increase in fluorescent signal occurring when donor and acceptor beads are close in proximity. Biotinylated poly(Glu,Tyr) 4:1 is used as the kinase substrate, in conjunction with streptavidin-coated donor beads and anti-phosphortyrosine antibody PY100-coated acceptor beads. Upon phosphorylation, the peptide substrate can bind to both donor and acceptor beads giving rise to an increase in fluorescence. Compounds, ATP, biotinylated poly(Glu, Tyr) and kinases are mixed in a volume of 20 uL for 1 hr at ambient temperature using Greiner 384-well white clear bottom medium binding plates. Following incubation a 10 uL solution containing […] AlphaScreen beads, 75 mM Hepes, pH 7.4, 300 mM NaCl, 120 mM EDTA, 0.3% BSA and 0.03% Tween-20 is added to each well. After 2-16 hr incubation of the beads, plates are read in a Perkin Elmer AlphaQuest reader. The IC50 values correlates well with those of radiometric assays.

c-Kit = c-Kit (Homo sapiens, UniProt P10721); assay: c-Kit biochemical assay (AlphaScreen)
In short: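 Kinase, compound, ATP and biotinylated poly(Glu,Tyr) 4:1 reacted 1 hr at ambient temperature; quenched with EDTA buffer (pH 7.4) containing streptavidin donor and anti-phosphotyrosine PY100 acceptor beads, incubated 16 hr, then AlphaScreen signal read to give IC50.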

EGFR = EGFR (Homo sapiens, UniProt P00533); assay: EGFR kinase inhibition assay; type: biochemical
Protocol: as §1, §2, §3, §4

Chain of c-Kit (P10721 26-976): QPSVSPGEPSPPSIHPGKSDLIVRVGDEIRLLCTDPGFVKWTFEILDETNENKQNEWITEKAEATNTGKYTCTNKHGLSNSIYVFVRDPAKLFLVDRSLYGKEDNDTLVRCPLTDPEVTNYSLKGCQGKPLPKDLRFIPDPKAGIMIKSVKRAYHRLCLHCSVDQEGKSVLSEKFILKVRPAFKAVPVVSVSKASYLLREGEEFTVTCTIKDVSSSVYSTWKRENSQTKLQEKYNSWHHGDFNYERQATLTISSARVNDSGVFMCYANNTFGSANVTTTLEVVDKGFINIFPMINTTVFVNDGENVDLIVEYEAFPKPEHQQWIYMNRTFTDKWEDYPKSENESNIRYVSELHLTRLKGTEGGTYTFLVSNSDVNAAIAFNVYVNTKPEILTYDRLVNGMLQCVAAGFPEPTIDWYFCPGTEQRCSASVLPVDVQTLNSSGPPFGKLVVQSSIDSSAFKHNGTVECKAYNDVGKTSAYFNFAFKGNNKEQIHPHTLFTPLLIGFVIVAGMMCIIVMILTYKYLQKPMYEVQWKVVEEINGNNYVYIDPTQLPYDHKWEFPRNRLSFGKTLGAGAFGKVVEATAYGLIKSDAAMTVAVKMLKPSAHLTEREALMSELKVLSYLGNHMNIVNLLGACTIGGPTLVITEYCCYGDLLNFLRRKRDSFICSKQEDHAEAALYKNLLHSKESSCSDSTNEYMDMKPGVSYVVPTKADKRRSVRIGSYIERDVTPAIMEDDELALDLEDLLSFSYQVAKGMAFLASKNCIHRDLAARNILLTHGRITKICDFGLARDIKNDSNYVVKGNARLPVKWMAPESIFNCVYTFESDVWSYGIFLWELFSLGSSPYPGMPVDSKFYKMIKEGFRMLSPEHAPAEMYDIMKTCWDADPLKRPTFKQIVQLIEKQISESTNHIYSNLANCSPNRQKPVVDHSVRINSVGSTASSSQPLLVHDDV
Chain of EGFR (P00533 25-1210, species assumed): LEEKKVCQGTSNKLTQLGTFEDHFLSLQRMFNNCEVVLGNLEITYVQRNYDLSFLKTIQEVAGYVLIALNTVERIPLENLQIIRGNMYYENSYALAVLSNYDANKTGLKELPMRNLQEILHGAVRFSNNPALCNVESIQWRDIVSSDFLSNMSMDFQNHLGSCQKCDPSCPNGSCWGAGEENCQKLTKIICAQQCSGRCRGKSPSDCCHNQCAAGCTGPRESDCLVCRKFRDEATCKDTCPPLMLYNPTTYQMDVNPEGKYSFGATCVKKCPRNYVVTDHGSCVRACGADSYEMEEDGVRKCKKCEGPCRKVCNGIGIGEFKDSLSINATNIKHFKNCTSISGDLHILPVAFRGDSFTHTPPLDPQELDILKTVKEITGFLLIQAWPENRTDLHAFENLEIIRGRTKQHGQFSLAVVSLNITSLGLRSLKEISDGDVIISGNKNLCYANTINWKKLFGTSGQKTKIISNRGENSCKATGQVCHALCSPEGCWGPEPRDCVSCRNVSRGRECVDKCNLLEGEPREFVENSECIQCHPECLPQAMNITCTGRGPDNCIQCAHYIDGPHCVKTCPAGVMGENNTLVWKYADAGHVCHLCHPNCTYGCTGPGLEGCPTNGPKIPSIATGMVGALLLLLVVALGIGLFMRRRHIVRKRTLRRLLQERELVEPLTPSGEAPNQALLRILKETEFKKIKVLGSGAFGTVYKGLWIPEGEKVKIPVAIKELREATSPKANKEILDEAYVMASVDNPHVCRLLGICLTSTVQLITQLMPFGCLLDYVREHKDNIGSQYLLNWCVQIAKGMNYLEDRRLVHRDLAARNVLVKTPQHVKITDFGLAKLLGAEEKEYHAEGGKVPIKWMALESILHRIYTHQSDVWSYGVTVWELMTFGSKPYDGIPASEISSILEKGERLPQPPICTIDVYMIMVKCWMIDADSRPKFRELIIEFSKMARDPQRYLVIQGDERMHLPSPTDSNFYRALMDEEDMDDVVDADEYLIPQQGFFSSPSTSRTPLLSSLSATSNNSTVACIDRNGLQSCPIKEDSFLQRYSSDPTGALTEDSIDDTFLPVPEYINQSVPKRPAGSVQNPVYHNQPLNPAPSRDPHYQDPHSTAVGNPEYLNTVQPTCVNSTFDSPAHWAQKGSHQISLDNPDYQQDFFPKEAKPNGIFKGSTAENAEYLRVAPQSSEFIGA

Row | Structure (SMILES) | pIC50 (flt-3) | pIC50 (EphB4) | pIC50 (c-Kit) | pIC50 (EGFR)
1 | CN1CCN(c2ccc3[nH]c(-c4cc(-c5ccc(NC(=O)Nc6ccc(F)cc6)cc5)[nH]n4)nc3c2)CC1 [Entry 23, N-(4-fluorophenyl)-N′-(4-{3-[5-(4-methylpiperazin-1-yl)-1H-benzimidazol-2-yl]-1H-pyrazol-5-yl}phenyl)urea] | > 7.30 | < 5.30 | > 7.30 | < 5.30
2 | CN1CCN(c2ccc3[nH]c(-c4cc(-c5ccc(NC(=O)Nc6ccc(F)c(F)c6)cc5)[nH]n4)nc3c2)CC1 [Entry 25, N-(3,4-difluorophenyl)-N′-(4-{3-[5-(4-methylpiperazin-1-yl)-1H-benzimidazol-2-yl]-1H-pyrazol-5-yl}phenyl)urea] | > 7.30 | < 5.30 | > 7.30 | < 5.30
3 | CCN1CCN(c2ccc3nc(-c4cc(-c5ccc(NC(=O)Nc6ccc(F)cc6F)cc5)[nH]n4)[nH]c3c2)CC1 [Entry 29, N-(2,4-difluorophenyl)-N′-(4-{3-[6-(4-ethylpiperazin-1-yl)-1H-benzimidazol-2-yl]-1H-pyrazol-5-yl}phenyl)urea] | > 7.30 | < 5.30 | > 7.30 | < 5.30
4 | O=C(Nc1ccc(-c2cc(-c3nc4ccccc4[nH]3)n[nH]2)cc1)Nc1ccc(Cl)c(C(F)(F)F)c1 [Entry 30, N-{4-[3-(1H-benzimidazol-2-yl)-1H-pyrazol-5-yl]phenyl}-N′-[4-chloro-3-(trifluoromethyl)phenyl]urea] | > 7.30 | < 5.30 | > 7.30 | < 5.30
5 | O=C(Nc1ccc(-c2cc(-c3nc4ccccc4[nH]3)n[nH]2)cc1)Nc1cc(C(F)(F)F)ccc1F [Entry 31, N-{4-[3-(1H-benzimidazol-2-yl)-1H-pyrazol-5-yl]phenyl}-N′-[2-fluoro-5-(trifluoromethyl)phenyl]urea] | > 7.30 | < 5.30 | > 7.30 | < 5.30
6 | CN1CCN(c2ccc3[nH]c(-c4cc(-c5ccc(NC(=O)Nc6ccc(F)cc6F)cc5)[nH]n4)nc3c2)CC1 [Entry 32, N-(2,4-difluorophenyl)-N′-(4-{3-[5-(4-methylpiperazin-1-yl)-1H-benzimidazol-2-yl]-1H-pyrazol-5-yl}phenyl)urea] | > 7.30 | < 5.30 | > 7.30 | < 5.30
7 | CN1CCN(c2ccc3[nH]c(-c4cc(-c5ccc(NC(=O)Nc6cc(C(F)(F)F)cc(C(F)(F)F)c6)cc5)[nH]n4)nc3c2)CC1 [Entry 34, N-[3,5-bis(trifluoromethyl)phenyl]-N′-(4-{3-[5-(4-methylpiperazin-1-yl)-1H-benzimidazol-2-yl]-1H-pyrazol-5-yl}phenyl)urea] | > 7.30 | 5.30 to 6.30 | > 7.30 | < 5.30
8 | CN1CCN(c2ccc3[nH]c(-c4cc(-c5ccc(NC(=O)Nc6ccccc6F)cc5)[nH]n4)nc3c2)CC1 [Entry 35, N-(2-fluorophenyl)-N′-(4-{3-[5-(4-methylpiperazin-1-yl)-1H-benzimidazol-2-yl]-1H-pyrazol-5-yl}phenyl)urea] | > 7.30 | < 5.30 | > 7.30 | < 5.30
9 | Oc1ccc(/C=C/c2cc(/C=C/c3ccccc3)[nH]n2)cc1 [Entry 36, 4-((E)-2-{5-[(E)-2-phenylethenyl]-1H-pyrazol-3-yl}ethenyl)phenol] | > 7.30 | < 5.30 | > 7.30 | < 5.30
10 | COc1cc(/C=C/c2cc(/C=C/c3ccccc3)[nH]n2)ccc1O [Entry 37, 2-(methyloxy)-4-((E)-2-{5-[(E)-2-phenylethenyl]-1H-pyrazol-3-yl}ethenyl)phenol] | > 7.30 | 5.30 to 6.30 | > 7.30 | < 5.30
11 | CN1CCN(c2ccc3[nH]c(-c4cc(-c5ccc(NC(=O)Nc6ccccc6)cc5)[nH]n4)nc3c2)CC1 [Entry 39, N-(4-{3-[5-(4-methylpiperazin-1-yl)-1H-benzimidazol-2-yl]-1H-pyrazol-5-yl}phenyl)-N′-phenylurea] | > 7.30 | < 5.30 | 6.30 to 7.30 | < 5.30
12 | CN1CCN(c2ccc(-c3cc(-c4ccc(NC(=O)Nc5ccc(F)cc5F)cc4)[nH]n3)cc2)CC1 [Entry 41, N-(2,4-difluorophenyl)-N′-(4-{3-[4-(4-methylpiperazin-1-yl)phenyl]-1H-pyrazol-5-yl}phenyl)urea] | > 7.30 | < 5.30 | 6.30 to 7.30 | < 5.30
13 | CN1CCN(c2ccc(-c3cc(-c4ccc(NC(=O)Nc5ccc6c(c5)OCCO6)cc4)n[nH]3)cc2)CC1 [Entry 42, N-(2,3-dihydro-1,4-benzodioxin-6-yl)-N′-(4-{5-[4-(4-methylpiperazin-1-yl)phenyl]-1H-pyrazol-3-yl}phenyl)urea] | > 7.30 | < 5.30 | 6.30 to 7.30 | < 5.30
